Data on four compounds can be found in US20230057930A1, “COMPOSITIONS FOR ALLEVIATING THE SYMPTOMS OF LOW ANTERIOR RESECTION SYNDROME BY TOPICAL ADMINISTRATION TO THE NEORECTUM” (RepoCeuticals A/S, priority 2020, published 2023).

The subject of one data set is rats. The note with it: rat, cited from earlier work.
Data set [1] in a line: Storage stability of melatonin in aqueous solution / formulation. Particulars: shelf life. It counts as physicochemical. On the procedure: Dimethyl sulfoxide (DMSO): DMSO ((CH3)2SO), molecular weight 78.1 g/mol, is a colorless polar aprotic solvent for both polar and nonpolar compounds and is completely miscible with water and a wide range of organic solvents. It is well known as a solvent or solubilizer for melatonin, as are also ethanol, glycerin and propylene glycol. […] On the other hand, the solubility of melatonin in water is limited to approximately 2 g/L at 20° C. […] DMSO penetrates the skin and other epithelia without damaging them and can carry other compounds dissolved in it into the underlying cells and tissues. DMSO has been used in human subjects as a topical analgesic, a vehicle for the topical application of pharmaceuticals e.g. as a component of a transdermal drug delivery systems, as an anti-inflammatory agent, and as an antioxidant. It is also used as a cryopreservative for sperm and oocytes in fertility treatments as well as for stem cells and modified lymphocytes for cellular therapies for cancer. […] While DMSO has been examined for the treatment of numerous conditions and ailments, its only use approved by the U.S. Food and Drug Administration (FDA) has been for the symptomatic treatment of interstitial cystitis, in which 50% (w/w) aqueous DMSO is instilled into the urinary bladder. […]

In a further data set the test system is human subjects. Particulars: cited from earlier work.
For data set [2] the following is noted: cited from earlier work.
Another data set deals with patients with LARS. The note with it: cited from earlier work.

Some results are limits rather than exact numbers.

On to `C[S+](C)[O-]` [DMSO, Dimethyl sulfoxide], for which, in the data set on rats (oral), the “median 50% lethal oral dose (LD50 oral) relative to ethanol” value was “twice as high as that of ethanol”. The “effect on decomposition of melatonin in aqueous solutions” value in data set [1] is “prevents the decomposition of melatonin”. Also, the “adverse effects in patients” value with human subjects (intravenously, doses up to 1 g/kg/day) is on record as “without evidence of adverse effects”.

Regarding `COc1ccc2[nH]cc(CCNC(C)=O)c2c1` [Melatonin, N-acetyl-5-methoxytryptamine], the “50% lethal oral dose (LD50 oral)” value with rats (in vivo, po) is over 3200 mg/kg. For the same compound, the solubility in water result in data set [2] (20° C.) is “approximately 2 g/L”. The “solubility in DMSO” value in data set [2] (room temperature (20 or 25° C.)) is at least 232 mg/mL. Also, the “adverse effects in human subjects” value in the data set on human subjects (gram amounts oral per day for prolonged periods) was “without apparent adverse effects”.

Consider `Cn1cc(C(=O)[C@@H]2CCc3nc[nH]c3C2)c2ccccc21` [ramosetron], for which the “effect on symptoms of LARS” value in the data set on patients with LARS was “alleviated the symptoms of urgency and reduced the number of bowel movements per day”.

For glycofurol, the “effect on decomposition of melatonin in aqueous solutions” value in data set [1] is “reduces the decomposition of melatonin”.
